Measurements from the NIST ThermoML archive (doi:10.1016/j.jct.2016.12.033).

Assay: mn = molality of the nth substance listed, in mol/kg
Settings: 101.3 kPa, Liquid; for viscosity: Capillary tube (Ostwald / Ubbelohde) method; for mass density: Pycnometric method

Cc1ncc(C[n+]2csc(CCO)c2C)c(N)n1.Cl.[Cl-] [thiamine hydrochloride] + O
Settings | mass density [kg/m3] | viscosity [mPa·s]
275.15 K, m1 = 0.0101 | 1001.03 | 1.692
275.15 K, m1 = 0.0201 | 1002.1 | 1.7
275.15 K, m1 = 0.0249 | 1002.6 | 1.712
275.15 K, m1 = 0.0302 | 1003.15 | 1.718
275.15 K, m1 = 0.04 | 1004.19 | 1.728
275.15 K, m1 = 0.0451 | 1004.73 | 1.736
275.15 K, m1 = 0.0499 | 1005.24 | 1.745
275.15 K, m1 = 0.055 | 1005.78 | 1.752
275.15 K, m1 = 0.0611 | 1006.45 | 1.759
275.15 K, m1 = 0.0645 | 1006.81 | 1.76
275.15 K, m1 = 0.0701 | 1007.4 | 1.771
275.15 K, m1 = 0.0751 | 1007.91 | 1.776
275.15 K, m1 = 0.0792 | 1008.33 | 1.776
275.15 K, m1 = 0.0897 | 1009.33 | 1.788
275.15 K, m1 = 0.1001 | 1010.2 | 1.8
277.15 K, m1 = 0.0101 | 1001.04 | 1.575
277.15 K, m1 = 0.0201 | 1002.1 | 1.591
277.15 K, m1 = 0.025 | 1002.61 | 1.593
277.15 K, m1 = 0.0299 | 1003.12 | 1.604
277.15 K, m1 = 0.0401 | 1004.18 | 1.61
277.15 K, m1 = 0.0452 | 1004.7 | 1.621
277.15 K, m1 = 0.0501 | 1005.2 | 1.627
277.15 K, m1 = 0.055 | 1005.69 | 1.632
277.15 K, m1 = 0.0598 | 1006.18 | 1.64
277.15 K, m1 = 0.0653 | 1006.74 | 1.646
277.15 K, m1 = 0.0704 | 1007.25 | 1.66
277.15 K, m1 = 0.0803 | 1008.25 | 1.672
277.15 K, m1 = 0.0822 | 1008.45 | 1.671
277.15 K, m1 = 0.0898 | 1009.24 | 1.678
279.15 K, m1 = 0.008 | 1000.76 | 1.481
279.15 K, m1 = 0.02 | 1002 | 1.494
279.15 K, m1 = 0.0249 | 1002.52 | 1.497
279.15 K, m1 = 0.0301 | 1003.05 | 1.505
279.15 K, m1 = 0.04 | 1004.08 | 1.512
279.15 K, m1 = 0.045 | 1004.59 | 1.517
279.15 K, m1 = 0.0501 | 1005.11 | 1.521
279.15 K, m1 = 0.0552 | 1005.63 | 1.527
279.15 K, m1 = 0.0603 | 1006.15 | 1.529
279.15 K, m1 = 0.0652 | 1006.65 | 1.542
279.15 K, m1 = 0.0703 | 1007.16 | 1.549
279.15 K, m1 = 0.0751 | 1007.64 | 1.556
279.15 K, m1 = 0.0798 | 1008.1 | 1.563
279.15 K, m1 = 0.0897 | 1009.09 | 1.57
279.15 K, m1 = 0.1001 | 1010.12 | 1.581

Cc1ncc(CO)c(CO)c1O.Cl [5-hydroxy-6-methyl-3,4-pyridinedimethanol hydrochloride] + O
Settings | mass density [kg/m3] | viscosity [mPa·s]
275.15 K, m1 = 0.0101 | 1000.6 | 1.687
275.15 K, m1 = 0.0204 | 1001.28 | 1.695
275.15 K, m1 = 0.03 | 1001.91 | 1.703
275.15 K, m1 = 0.0357 | 1002.27 | 1.706
275.15 K, m1 = 0.0401 | 1002.55 | 1.708
275.15 K, m1 = 0.0454 | 1002.9 | 1.712
275.15 K, m1 = 0.0505 | 1003.22 | 1.719
275.15 K, m1 = 0.0557 | 1003.54 | 1.722
275.15 K, m1 = 0.0695 | 1004.4 | 1.725
275.15 K, m1 = 0.0766 | 1004.84 | 1.73
275.15 K, m1 = 0.0801 | 1005.06 | 1.735
275.15 K, m1 = 0.0857 | 1005.41 | 1.737
275.15 K, m1 = 0.0882 | 1005.58 | 1.739
275.15 K, m1 = 0.1004 | 1006.38 | 1.75
277.15 K, m1 = 0.0099 | 1000.61 | 1.576
277.15 K, m1 = 0.0202 | 1001.27 | 1.58
277.15 K, m1 = 0.0252 | 1001.59 | 1.584
277.15 K, m1 = 0.0299 | 1001.89 | 1.588
277.15 K, m1 = 0.035 | 1002.22 | 1.592
277.15 K, m1 = 0.04 | 1002.54 | 1.597
277.15 K, m1 = 0.0497 | 1003.15 | 1.603
277.15 K, m1 = 0.0598 | 1003.79 | 1.606
277.15 K, m1 = 0.0658 | 1004.16 | 1.607
277.15 K, m1 = 0.0683 | 1004.32 | 1.609
277.15 K, m1 = 0.0753 | 1004.75 | 1.615
277.15 K, m1 = 0.0797 | 1005.02 | 1.619
277.15 K, m1 = 0.0882 | 1005.55 | 1.625
277.15 K, m1 = 0.1004 | 1006.29 | 1.629
279.15 K, m1 = 0.01 | 1000.56 | 1.477
279.15 K, m1 = 0.0199 | 1001.18 | 1.479
279.15 K, m1 = 0.0253 | 1001.51 | 1.484
279.15 K, m1 = 0.0298 | 1001.8 | 1.488
279.15 K, m1 = 0.0351 | 1002.13 | 1.495
279.15 K, m1 = 0.0397 | 1002.42 | 1.5
279.15 K, m1 = 0.0492 | 1003 | 1.499
279.15 K, m1 = 0.055 | 1003.36 | 1.507
279.15 K, m1 = 0.0578 | 1003.53 | 1.505
279.15 K, m1 = 0.0648 | 1003.96 | 1.515
279.15 K, m1 = 0.069 | 1004.22 | 1.522
279.15 K, m1 = 0.0798 | 1004.9 | 1.524
279.15 K, m1 = 0.0897 | 1005.51 | 1.53
279.15 K, m1 = 0.0996 | 1006.16 | 1.535

O=C1O[C@H]([C@@H](O)CO)C([O-])=C1O.[Na+] [sodium L-ascorbate] + O
Settings | mass density [kg/m3] | viscosity [mPa·s]
275.15 K, m1 = 0.01 | 1001.05 | 1.68
275.15 K, m1 = 0.0201 | 1002.2 | 1.691
275.15 K, m1 = 0.0303 | 1003.31 | 1.703
275.15 K, m1 = 0.0348 | 1003.83 | 1.703
275.15 K, m1 = 0.04 | 1004.41 | 1.706
275.15 K, m1 = 0.0451 | 1004.94 | 1.708
275.15 K, m1 = 0.05 | 1005.5 | 1.718
275.15 K, m1 = 0.0598 | 1006.59 | 1.727
275.15 K, m1 = 0.0699 | 1007.71 | 1.736
275.15 K, m1 = 0.0749 | 1008.27 | 1.745
275.15 K, m1 = 0.0835 | 1009.12 | 1.748
275.15 K, m1 = 0.0849 | 1009.32 | 1.747
275.15 K, m1 = 0.0902 | 1009.85 | 1.757
275.15 K, m1 = 0.0999 | 1010.96 | 1.765
277.15 K, m1 = 0.01 | 1001.09 | 1.572
277.15 K, m1 = 0.02 | 1002.17 | 1.578
277.15 K, m1 = 0.0301 | 1003.31 | 1.586
277.15 K, m1 = 0.0351 | 1003.85 | 1.591
277.15 K, m1 = 0.0402 | 1004.45 | 1.595
277.15 K, m1 = 0.05 | 1005.5 | 1.601
277.15 K, m1 = 0.0601 | 1006.59 | 1.609
277.15 K, m1 = 0.065 | 1007.13 | 1.616
277.15 K, m1 = 0.0697 | 1007.7 | 1.619
277.15 K, m1 = 0.075 | 1008.2 | 1.626
277.15 K, m1 = 0.0798 | 1008.75 | 1.628
277.15 K, m1 = 0.0851 | 1009.29 | 1.634
277.15 K, m1 = 0.0898 | 1009.82 | 1.641
277.15 K, m1 = 0.1003 | 1010.95 | 1.646
279.15 K, m1 = 0.0105 | 1001.12 | 1.479
279.15 K, m1 = 0.0201 | 1002.16 | 1.482
279.15 K, m1 = 0.0301 | 1003.23 | 1.491
279.15 K, m1 = 0.0348 | 1003.74 | 1.494
279.15 K, m1 = 0.0402 | 1004.33 | 1.498
279.15 K, m1 = 0.045 | 1004.84 | 1.503
279.15 K, m1 = 0.0501 | 1005.39 | 1.506
279.15 K, m1 = 0.0602 | 1006.49 | 1.516
279.15 K, m1 = 0.065 | 1007.01 | 1.52
279.15 K, m1 = 0.0699 | 1007.54 | 1.531
279.15 K, m1 = 0.0752 | 1008.12 | 1.532
279.15 K, m1 = 0.0852 | 1009.19 | 1.538
279.15 K, m1 = 0.0904 | 1009.74 | 1.541
279.15 K, m1 = 0.1005 | 1010.79 | 1.548
